# Results taken from patent US20260083728A1, “COMPOUNDS FOR TREATING INFECTIONS WITH PARASITIC PROTOZOA” (OHIO STATE INNOVATIION FOUNDATION, priority 2022, published 2026).
# pEC50: −log10 of the molar value.
# Assays:
# [1] = test system: L. donovani LV82 promastigotes; assay: Promastigote assay (proliferation); assay type: cell-based; conditions: Leishmania donovani, n ≥ 3 independent experiments
# Experimental: Promastigote assay. The effect of the compounds on the proliferation of Leishmania donovani LV82 strain parasites (MHOM/ET/67:LV82) was carried out as outlined by Feng et al.^26
# L. donovani CYP5122A1 = L. donovani CYP5122A1 (Leishmania donovani, UniProt Q2XQE3); assay: Leishmania CYP5122A1 inhibition assay; assay type: biochemical; conditions: comparator 18a
# Experimental: (§3) Leishmania CYP51 and CYP5122A1 assays. The cloning, expression, purification, and inhibition assays performed with L. donovani CYP51 and CYP5122A1 were conducted as described in Wang et al.^19
# [2] = test system: intracellular L. donovani LV82 parasites; assay: L. donovani-infected macrophage assay (high content imaging); assay type: cell-based, Leishmania donovani; conditions: for effect on intracellular parasites: at non-toxic concentrations
# Excerpt: (§1) Evaluation in an infected macrophage model. Four of the compounds described above were selected for evaluation in an L. donovani infected macrophage model. […] An image-based assay employing murine peritoneal macrophages as host cells and DAPI as an indicator that was based on assays reported previously in the literature^23-24 was used to evaluate these compounds.
# (§2) L. donovani-infected macrophage assay. The efficacy of selected target compounds against intracellular L. donovani LV82 parasites was conducted using murine peritoneal macrophages as the host cell in a high content imaging assay essentially as described by Joice et al.^24 and Abdelhameed et al.^28, with the following modifications. The density of peritoneal macrophages was 5×10^4 host cells/well, with the parasite/macrophage ratio remaining at 5:1. The concentration of 4,6-diamidino-2-phenylindole (DAPI) employed for nuclear staining was 4 μM. […] For the quantification of the infection, macrophage nuclei were selected first by DAPI staining with area larger than 30 μm^2. The cytoplasm was selected consequentially based on the nuclei with the digital phase contrast (DPC) channel. Parasites in the cytoplasm were selected based on relative intensity. Parasites per macrophage in each well were exported to a CSV file to generate dose responses, with data analysis performed as described by Joice et al.^24
# [3] = test system: murine peritoneal macrophages; assay: Host cell toxicity in the infected macrophage assay; assay type: cell-based; conditions: for host cell toxicity: 25 μM and below; for toxicity to host cells: 50 μM
# Excerpt: as §1, §2
# J774 macrophages = assay: J774 macrophage assay; assay type: cell-based; conditions: Mus musculus; J774 murine macrophages; n ≥ 3 independent experiments
# Experimental: J774 macrophage assay. This assay was performed as reported by Zhu et al.^27
# L. donovani CYP51 = L. donovani CYP51 (Leishmania donovani, UniProt A0A3S7WRS7); assay: Leishmania CYP51 inhibition assay; assay type: biochemical; conditions: comparator 18a
# Experimental: as §3
# [4] = murine peritoneal macrophages as host cells, n=3 determinations
# Sequence of L. donovani CYP5122A1 (Q2XQE3 entry or part of it): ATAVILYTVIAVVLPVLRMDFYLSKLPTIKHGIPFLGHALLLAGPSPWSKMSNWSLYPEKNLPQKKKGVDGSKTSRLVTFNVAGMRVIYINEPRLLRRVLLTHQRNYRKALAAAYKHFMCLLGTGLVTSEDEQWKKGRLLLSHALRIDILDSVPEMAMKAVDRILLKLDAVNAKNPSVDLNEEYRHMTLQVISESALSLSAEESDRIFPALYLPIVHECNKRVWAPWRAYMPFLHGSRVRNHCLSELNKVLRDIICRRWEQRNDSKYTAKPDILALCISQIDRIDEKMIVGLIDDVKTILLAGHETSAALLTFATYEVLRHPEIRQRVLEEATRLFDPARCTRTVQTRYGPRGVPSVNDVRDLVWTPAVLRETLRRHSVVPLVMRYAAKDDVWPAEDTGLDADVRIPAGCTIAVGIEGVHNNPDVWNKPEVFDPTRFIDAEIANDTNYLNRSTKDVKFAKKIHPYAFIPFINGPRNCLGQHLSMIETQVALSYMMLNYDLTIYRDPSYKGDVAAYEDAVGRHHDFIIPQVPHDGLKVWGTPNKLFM
# Sequence of L. donovani CYP51 (A0A3S7WRS7 entry or part of it): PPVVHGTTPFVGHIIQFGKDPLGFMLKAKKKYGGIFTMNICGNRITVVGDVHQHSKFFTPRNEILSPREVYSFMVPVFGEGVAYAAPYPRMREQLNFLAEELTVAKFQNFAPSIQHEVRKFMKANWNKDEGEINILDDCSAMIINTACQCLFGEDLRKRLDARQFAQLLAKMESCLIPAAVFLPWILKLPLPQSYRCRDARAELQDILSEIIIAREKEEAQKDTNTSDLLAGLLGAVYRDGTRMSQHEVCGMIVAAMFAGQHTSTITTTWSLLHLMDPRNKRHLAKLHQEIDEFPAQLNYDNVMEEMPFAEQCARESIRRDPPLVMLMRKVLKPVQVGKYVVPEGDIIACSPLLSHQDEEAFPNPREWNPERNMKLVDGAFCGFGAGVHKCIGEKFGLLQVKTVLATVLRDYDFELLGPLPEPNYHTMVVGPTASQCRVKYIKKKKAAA
pEC50 [1],SMILES,also measured
< 4.00,"O=C(Nc1ccc(Cl)cc1)N1CCN(Cc2ccncc2)CC1 [Compound 4o, N-(4-chlorophenyl)-4-(pyridin-4-ylmethyl)piperazine-1-carboxamide]",
,"CC(C)(C)c1cc(COc2ccc(NC(=O)N3CCN(CCc4ccncc4)CC3)cc2)cc(C(C)(C)C)c1 [Compound 18i, N-(4-((3,5-di-tert-butylbenzyl)oxy)phenyl)-4-(2-(pyridin-4-yl)ethyl)piperazine-1-carboxamide]","increase in inhibitory potency against CYP5122A1 compared to hit compound 18a (L. donovani CYP5122A1): 2.2 fold; EC50 against intracellular L. donovani [2, 4]: low micromolar range; host cell toxicity [3]: lower; toxicity to host cells [3]: exhibited toxicity to host cells"
< 4.30,"Cc1cc(C)cc(NC(=O)N2CCN(Cc3ccncc3)CC2)c1 [Compound 4a, N-(3,5-dimethylphenyl)-4-(pyridin-4-ylmethyl)piperazine-1-carboxamide]",
< 4.30,"CC(C)Oc1cccc(NC(=O)N2CCN(Cc3ccncc3)CC2)c1 [Compound 4l, N-(3-isopropoxyphenyl)-4-(pyridin-4-ylmethyl)piperazine-1-carboxamide]",
< 4.90,"O=C(Nc1ccc(OCc2cc(C(F)(F)F)cc(C(F)(F)F)c2)cc1)N1CCN(CCc2ccccc2)CC1 [Compound 18r, N-(4-((3,5-bis(trifluoromethyl)benzyl)oxy)phenyl)-4-phenethylpiperazine-1-carboxamide]",
< 4.30,"O=C(Nc1ccc(C(F)(F)F)cc1)N1CCN(Cc2ccncc2)CC1 [Compound 4u, 4-(Pyridin-4-ylmethyl)-N-(4-(trifluoromethyl)phenyl)piperazine-1-carboxamide]",
,"COc1ccc(CCN2CCN(C(=O)Nc3ccc(OCc4cc(C(F)(F)F)cc(C(F)(F)F)c4)cc3)CC2)cc1 [Compound 18x, N-(4-((3,5-bis(trifluoromethyl)benzyl)oxy)phenyl)-4-(4-methoxyphenethyl)piperazine-1-carboxamide]",pEC50 (J774 macrophages): 5.08
< 4.00,"O=C(Nc1cccc(Cl)c1)N1CCN(Cc2ccncc2)CC1 [Compound 4n, N-(3-chlorophenyl)-4-(pyridin-4-ylmethyl)piperazine-1-carboxamide]",
4.52,"O=C(Nc1ccc(OCc2cc(C(F)(F)F)cc(C(F)(F)F)c2)cc1)N1CCN(CCn2cccn2)CC1 [Compound 18o, 4-(2-(1H-pyrazol-1-yl)ethyl)-N-(4-((3,5-bis(trifluoromethyl)benzyl)oxy)phenyl)piperazine-1-carboxamide]",
4.32,"O=C(Nc1cccc(C(F)(F)F)c1)N1CCN(Cc2ccncc2)CC1 [Compound 4t, 4-(Pyridin-4-ylmethyl)-N-(3-(trifluoromethyl)phenyl)piperazine-1-carboxamide]",
,"CC(C)(C)c1cccc(NC(=O)N2CCN(Cc3ccncc3)CC2)c1 [Compound 4g, N-(3-(tert-butyl)phenyl)-4-(pyridin-4-ylmethyl)piperazine-1-carboxamide]",pEC50 (J774 macrophages): < 4.30; effect on intracellular parasites [2]: little effect
~5.00,"O=C(Nc1cc(C(F)(F)F)cc(C(F)(F)F)c1)N1CCN(Cc2ccncc2)CC1 [Compound 4v, N-(3,5-bis(trifluoromethyl)phenyl)-4-(pyridin-4-ylmethyl)piperazine-1-carboxamide]",effect on intracellular parasites [2]: little effect
< 4.30,"O=C(Nc1ccc(OCc2cc(C(F)(F)F)cc(C(F)(F)F)c2)cc1)N1CCN(CCCc2ccccc2)CC1 [Compound 18ab, N-(4-((3,5-bis(trifluoromethyl)benzyl)oxy)phenyl)-4-(3-phenylpropyl)piperazine-1-carboxamide]",
,"O=C(Nc1ccc(OCc2cc(C(F)(F)F)cc(C(F)(F)F)c2)cc1)N1CCN(CCc2ccncc2)CC1 [Compound 18e, N-(4-((3,5-bis(trifluoromethyl)benzyl)oxy)phenyl)-4-(2-(pyridin-4-yl)ethyl)piperazine-1-carboxamide]","increase in inhibitory potency against CYP5122A1 compared to hit compound 18a (L. donovani CYP5122A1): 3.4 fold; pEC50 ([2]; Leishmania donovani, Peritoneal macrophage, murine peritoneal macrophages as host cells, n=3 determinations, read-out: EC50 against intracellular L. donovani): 5.40; EC50 against intracellular L. donovani [2, 4]: low micromolar range; host cell toxicity [3]: lower; toxicity to host cells [3]: exhibited toxicity to host cells"
< 4.30,"Cc1cc(NC(=O)N2CCN(Cc3ccncc3)CC2)cc(C)c1C [Compound 4f, 4-(pyridin-4-ylmethyl)-N-(3,4,5-trimethylphenyl)piperazine-1-carboxamide]",
,"COc1cc(COc2ccc(NC(=O)N3CCN(CCc4ccncc4)CC3)cc2)cc(OC)c1 [Compound 18g, N-(4-((3,5-dimethoxybenzyl)oxy)phenyl)-4-(2-(pyridin-4-yl)ethyl)piperazine-1-carboxamide]",decrease in potency against CYP5122A1 compared to hit compound 18a (L. donovani CYP5122A1): 3.0 fold; decrease in activity against CYP51 compared to hit compound 18a (L. donovani CYP51): 1.8 fold
< 4.30,"O=C(Nc1ccc(OCc2cc(C(F)(F)F)cc(C(F)(F)F)c2)cc1)N1CCN(CCn2cncn2)CC1 [Compound 18q, 4-(2-(1H-1,2,4-triazol-1-yl)ethyl)-N-(4-((3,5-bis(trifluoromethyl)benzyl)oxy)phenyl)piperazine-1-carboxamide]",pEC50 (J774 macrophages): < 4.30

SMILES,pEC50 [1],also measured
"O=C(Nc1ccccc1Cl)N1CCN(Cc2ccncc2)CC1 [Compound 4m, N-(2-chlorophenyl)-4-(pyridin-4-ylmethyl)piperazine-1-carboxamide]",< 4.00,
"Cc1ccc(NC(=O)N2CCN(Cc3ccncc3)CC2)cc1 [Compound 4e, 4-(Pyridin-4-ylmethyl)-N-(p-tolyl)piperazine-1-carboxamide]",< 4.00,
"O=C(Nc1ccccc1)N1CCN(Cc2ccncc2)CC1 [Compound 4b, N-phenyl-4-(pyridin-4-ylmethyl)piperazine-1-carboxamide]",< 4.00,
"O=C(Nc1ccc(F)cc1)N1CCN(Cc2ccncc2)CC1 [Compound 4r, N-(4-fluorophenyl)-4-(pyridin-4-ylmethyl)piperazine-1-carboxamide]",< 4.00,
"COc1cccc(NC(=O)N2CCN(Cc3ccncc3)CC2)c1 [Compound 4i, N-(3-methoxyphenyl)-4-(pyridin-4-ylmethyl)piperazine-1-carboxamide]",< 4.00,
"O=C(Nc1cccc(F)c1)N1CCN(Cc2ccncc2)CC1 [Compound 4q, N-(3-fluorophenyl)-4-(pyridin-4-ylmethyl)piperazine-1-carboxamide]",< 4.00,
"O=C(Nc1cc(F)cc(F)c1)N1CCN(Cc2ccncc2)CC1 [Compound 4s, N-(3,5-difluorophenyl)-4-(pyridin-4-ylmethyl)piperazine-1-carboxamide]",< 4.00,
"Cc1cccc(NC(=O)N2CCN(Cc3ccncc3)CC2)c1 [Compound 4d, 4-(Pyridin-4-ylmethyl)-N-(m-tolyl)piperazine-1-carboxamide]",< 4.00,
"COc1ccc(NC(=O)N2CCN(Cc3ccncc3)CC2)cc1 [Compound 4j, N-(4-methoxyphenyl)-4-(pyridin-4-ylmethyl)piperazine-1-carboxamide]",< 4.00,
"COc1cc(NC(=O)N2CCN(Cc3ccncc3)CC2)cc(OC)c1 [Compound 4k, N-(3,5-dimethoxyphenyl)-4-(pyridin-4-ylmethyl)piperazine-1-carboxamide]",< 4.00,
"Cc1ccccc1NC(=O)N1CCN(Cc2ccncc2)CC1 [Compound 4c, 4-(Pyridin-4-ylmethyl)-N-(o-tolyl)piperazine-1-carboxamide]",< 4.00,
